Key:
mouse CD38 = biological target: T1, mouse CD38 (Mus musculus, UniProt P56528); assay: NAD+ cyclase activity assay with mouse recombinant CD38 protein (ε-NAD fluorescence); format: biochemical; settings: 0.6 nM mouse CD38, substrate ε-NAD, 30 min preincubation, fluorescence 300/410 nm
T1 construct: purchased Bio-Techne GmbH 4947-AC
T1 sequence (P56528 1-304): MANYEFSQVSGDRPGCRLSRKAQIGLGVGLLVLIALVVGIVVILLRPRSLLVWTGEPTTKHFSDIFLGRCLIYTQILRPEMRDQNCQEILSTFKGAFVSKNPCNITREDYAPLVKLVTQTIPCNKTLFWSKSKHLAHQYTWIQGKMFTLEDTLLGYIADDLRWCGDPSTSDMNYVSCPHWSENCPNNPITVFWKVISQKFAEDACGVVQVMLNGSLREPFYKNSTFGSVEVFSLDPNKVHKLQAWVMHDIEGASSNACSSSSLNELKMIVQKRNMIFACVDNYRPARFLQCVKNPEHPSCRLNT
Summary of the method: (§1)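 Twelve-point threefold compound dilutions were given 30 min at room temperature with 0.6 nM mouse or 1.9 nM human CD38 before […] ε-NAD was added (pH 7.5 HEPES/sucrose/Tween buffer). The rate came from the linear-phase slope of ex 300/em 410 nm fluorescence against vehicle and no-CD38 controls.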

human CD38 = biological target: T2, human CD38 (Homo sapiens, UniProt P28907); assay: NAD+ cyclase activity assay with human recombinant CD38 protein (ε-NAD fluorescence); format: biochemical; settings: 1.9 nM human CD38, substrate ε-NAD, 30 min preincubation, fluorescence 300/410 nm
T2 construct: purchased Bio-Techne GmbH AVI2404
T2 sequence (P28907 1-300): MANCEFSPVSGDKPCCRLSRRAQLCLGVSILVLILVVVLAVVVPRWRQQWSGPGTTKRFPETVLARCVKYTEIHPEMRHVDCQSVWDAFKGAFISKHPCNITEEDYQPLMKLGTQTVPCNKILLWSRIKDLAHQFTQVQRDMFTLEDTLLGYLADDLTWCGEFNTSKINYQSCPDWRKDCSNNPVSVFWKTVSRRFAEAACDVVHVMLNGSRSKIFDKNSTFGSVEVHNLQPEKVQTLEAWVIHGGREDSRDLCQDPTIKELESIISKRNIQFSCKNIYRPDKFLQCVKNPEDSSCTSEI
Summary of the method: as §1

Compound | IC50 (mouse CD38) [µM] | IC50 (human CD38) [µM]
CC(C)(CO[C@H]1CC[C@@H](NC(=O)c2cc(Cl)c3c(c2)-c2cncn2CCO3)CC1)C(F)(F)F [Compound 171A, 8-Chloro-N-((1s,4s)-4-(3,3,3-trifluoro-2,2-dimethylpropoxy)cyclohexyl)-5,6-dihydrobenzo[f]imidazo[1,5-d][1,4]oxazepine-10-carboxamide] | > 0.1 | > 1
O=C(N[C@H]1CC[C@H](OC2CC(F)(F)C2)CC1)c1cc(Cl)c2c(c1)-c1cncn1CCO2 [Compound 172A, N-((1r,4r)-4-(3,3-difluorocyclobutoxy)cyclohexyl)-8-chloro-5,6-dihydrobenzo[f]imidazo[1,5-d][1,4]oxazepine-10-carboxamide] | 0.001 to 0.01 | < 0.03
O=C(N[C@H]1CC[C@@H](OC2CC(F)(F)C2)CC1)c1cc(Cl)c2c(c1)-c1cncn1CCO2 [Compound 173A, N-((1s,4s)-4-(3,3-difluorocyclobutoxy)cyclohexyl)-8-chloro-5,6-dihydrobenzo[f]imidazo[1,5-d][1,4]269xazepane-10-carboxamide] | 0.01 to 0.1 | 0.1 to 1
C[C@@H]1CCC[C@H](C)[C@H]1NC(=O)c1cc(F)c2c(c1)-c1cncn1CCO2 [Compound 176A, N-(trans-2-trans-6-Dimethylcyclohexyl)-8-fluoro-5,6-dihydrobenzo[f]imidazo[1,5-d][1,4]oxazepine-10-carboxamide] | 0.001 to 0.01 | < 0.03
C[C@@H]1CCC[C@H](C)[C@@H]1NC(=O)c1cc(F)c2c(c1)-c1cncn1CCO2 [Compound 178A, N-(cis-2-cis-6-Dimethylcyclohexyl)-8-fluoro-5,6-dihydrobenzo[f]imidazo[1,5-d][1,4]oxazepine-10-carboxamide] | 0.001 to 0.01 | < 0.03
N-((1r,4r)-4-((1-(Trifluoromethyl)cyclopropyl)methoxy)cyclohexyl)-5,6-dihydrobenzo[f]imidazo[1,5-d][1,4]oxazepine-10-carboxamide [Compound 142A] | 0.001 to 0.01 | < 0.03
N-((1r,4r)-4-((Tetrahydrofuran-2-yl)methoxy)cyclohexyl)-5,6-dihydrobenzo[f]imidazo[1,5-d][1,4]oxazepine-10-carboxamide [Compound 76A] | 0.001 to 0.01 | < 0.03
N-((1s,4s)-4-((Tetrahydrofuran-2-yl)methoxy)cyclohexyl)-5,6-dihydrobenzo[f]imidazo[1,5-d][1,4]oxazepine-10-carboxamide [Compound 75A] | > 0.1 | > 1

From patent US20260138990A1, “TRICYCLIC FUSED IMIDAZOLE COMPOUNDS AS CD38 MODULATORS AND USES THEREOF” (AEOVIAN PHARMACEUTICALS, INC., priority 2023, published 2026)
